{"source": "paper PMC9866095", "about": "“Efficient Synthesis and In Vitro Hypoglycemic Activity of Rare Apigenin Glycosylation Derivatives” (Molecules, 2023)", "note": "pIC50: −log10 of the molar value."}
{"target": "α-glucosidase", "experiment": "pNPG hydrolysis, absorbance at […] nm, commercial enzyme", "type": "biochemical"}
{"smiles": "O=c1cc(-c2ccc(O)cc2)oc2cc(O[C@@H]3O[C@H](CO)[C@@H](O)[C@H](O)[C@H]3O)cc(O)c12", "note": "[AG, apigenin-7-O-β-(6″-O)-D-glucoside]", "pIC50": 3.27}
{"smiles": "O=c1cc(-c2ccc(O)cc2)oc2cc(O)cc(O)c12", "note": "[Apigenin]", "pIC50": 3.28}
{"smiles": "O=C(O)CCC(=O)OC[C@H]1O[C@@H](Oc2cc(O)c3c(=O)cc(-c4ccc(O)cc4)oc3c2)[C@H](O)[C@@H](O)[C@@H]1O", "note": "[SAG, apigenin-7-O-β-(6″-O-succinyl)-D-glucoside]", "pIC50": 3.31}
